Measurements reported in PMC9014415, “Repositioning of a Diaminothiazole Series Confirmed to Target the Cyclin-Dependent Kinase CRK12 for Use in the Treatment of African Animal Trypanosomiasis” (Journal of Medicinal Chemistry, 2022).

Experiments:
[1] = Mouse hepatocyte stability; assay type: in vitro ADME; settings: intrinsic clearance
T. b. brucei = test: Acute T. b. brucei efficacy in mice; assay type: in vivo, Trypanosoma brucei brucei; settings: 3 mg/kg bid po for 4 days
Description: (citrate, fumarate and phosphate) (Figure 9). These alternative salt forms of compound 2 were prepared and formulated in the best vehicle determined by injection site tolerability analysis (0.3M sodium acetate buffer, Kolliphor EL, N-methyl pyrrolidone, 2-pyrrolidone, and 11% water suitable for injection). Rat IM pharmacokinetics was then carried out with each salt to determine the salt form to use for efficacy. None of these salt forms offered any improvement in rat IM pharmacokinetic profile over the free base in the tolerated vehicle (Figure S7).
3. In vivo efficacy studies
The T. congolense (IL3000) and T. vivax (ILRAD V34) cell lines7, 8, both originating from Kenya, were used in the following in vivo mouse studies. For studies in cattle, either Trypanosoma congolense (savannah) KONT 2/133, 224) or T. vivax STIB 719 was used.
3.1 Mouse efficacy studies for T. brucei brucei.
Mouse efficacy studies for T. brucei brucei were carried out as previously detailed.9 3.2 NMRI mouse efficacy studies for T. congolense and T. vivax.
Mouse models of infections were carried out using standardized protocols. Briefly, 1 mL samples of cryopreserved T. congolense, or T. vivax-infected blood harvested directly from an infected mouse, were diluted with Hanks Balanced Salt Solution plus 20 mM glucose (HBSS+G) to 5 x 10^4 trypomastigotes/mL (5 x 105 for T. vivax). […]

[2] = test system: T. brucei CRK12 (Tb927.11.12310) edited parasites; test: Sensitivity of CRISPR-Cas9-edited CRK12 T. brucei compared to wild-type; assay type: cell-based, Trypanosoma brucei
Excerpt: Three unbiased and independent approaches converged to identify CRK12 as the likely target of compound 2. Next, we used CRISPR-Cas9 precision base editing to interrogate the role of CRK12-related mutations in resistance.[16] A codon-targeted saturation mutagenesis strategy was used to investigate mutations that could support resistance to compound 2 at positions 482 or 492. This was achieved using repair templates randomized (NNN) in these specific positions. […] These edited parasites were 133-fold less sensitive to compound 2 compared to wild-type parasites. In contrast, several different amino acids (Ile, Gln, Met, and Val) were tolerated in position 492. Each mutation conferred differing levels of resistance to compound 2, for instance, parasites bearing a Gly492Val edit were eightfold more tolerant to the compound than wild-type cells, while a Gly492Gln mutation led to 32-fold resistance (Figure 4B); parasites bearing a Gly492Ile or a Gly492Met edit behaved similarly to parasites bearing a Gly492Gln edit. […] This is most likely explained by the pronounced growth defect associated with all three of our resistant clones (R1–3) that harbor this specific mutation. […]
overall quality score (QUAL) was >100. Artemis13 was used to analyse chromosome and gene copy number variation (CNV), as well as visualisation of SNPs.
4.3 RIT-seq screening, Illumina sequencing and analysis
The RIT-seq library screening was performed as described previously.14 The RNAi library was maintained with blasticidin (1 µg ml-1) and phleomycin (1 µg ml-1) at a minimum of 2 x 10^7 cells. […]
Reads were mapped to the T. brucei 927 reference genome (v39; TriTrypDB [http://tritrypdb.org/]) using Bowtie 2 software,10 with the following parameter: --very-sensitive-local. Following manipulation with SAMtools11 the alignment files were searched with a custom script to identify reads with the following barcode: GCCTCGCGA.14 The total and barcoded reads were then quantified using the Artemis genome browser.15 […]

| Structure (SMILES) | Mouse Hepatocyte Cli [1] [mL/min/g] | Acute T. b. brucei efficacy in mice (T. b. brucei) | Resistance compared to wild-type ([2]; CRK12 Gly492Gln edit) [fold] | Tolerance compared to wild-type ([2]; CRK12 Gly492Val edit) | Loss of sensitivity compared to wild-type ([2]; CRK12 Leu482Phe edit) [fold] |
| --- | --- | --- | --- | --- | --- |
| CC(C)CS(=O)(=O)N[C@H]1CC[C@H](Nc2nc(N)c(C(=O)c3c(F)cccc3F)s2)CC1 [Compound 1, N-((trans)-4-((4-Amino-5-(2,6-difluorobenzoyl)thiazol-2-yl)amino)cyclohexyl)-2-methylpropane-1-sulfonamide] | 5.9 | Cures 3 mg/kg bid po for 4 days | – | – | – |
| CC(C)CS(=O)(=O)N[C@H]1CC[C@H](Nc2nc(N)c(C(=O)c3c(F)cc(CN(C)C)cc3F)s2)CC1 [Compound 2, N-(trans)-[4-[[4-Amino-5-[4-(dimethylaminomethyl)-2,6-difluoro-benzoyl]thiazol-2-yl]amino]cyclohexyl]-2-methyl-propane-1-sulfonamide] | – | – | 32 | eightfold | 133 |
